Data: patent US20110160308A1, “Use of Monoamine Oxidase Inhibitors to Treat Outer Retina Disorders” (ALCON RESEARCH, LTD., priority 2006, published 2011)
“Also recorded” adds a separate entry of the source.

Assays:
MAO-B = target: T1, MAO-B (Rattus norvegicus, UniProt P19643); test: In vitro MAO-B enzyme activity assay (radioenzymatic, 14C-phenylethylamine) in rat brain mitochondria; type: biochemical
T1 construct: of the invention in rat brain mitochondria; from tissue; host or cells: rat brain, crude mitochondrial fraction (male Wistar rats)
T1 sequence (P19643 1-520): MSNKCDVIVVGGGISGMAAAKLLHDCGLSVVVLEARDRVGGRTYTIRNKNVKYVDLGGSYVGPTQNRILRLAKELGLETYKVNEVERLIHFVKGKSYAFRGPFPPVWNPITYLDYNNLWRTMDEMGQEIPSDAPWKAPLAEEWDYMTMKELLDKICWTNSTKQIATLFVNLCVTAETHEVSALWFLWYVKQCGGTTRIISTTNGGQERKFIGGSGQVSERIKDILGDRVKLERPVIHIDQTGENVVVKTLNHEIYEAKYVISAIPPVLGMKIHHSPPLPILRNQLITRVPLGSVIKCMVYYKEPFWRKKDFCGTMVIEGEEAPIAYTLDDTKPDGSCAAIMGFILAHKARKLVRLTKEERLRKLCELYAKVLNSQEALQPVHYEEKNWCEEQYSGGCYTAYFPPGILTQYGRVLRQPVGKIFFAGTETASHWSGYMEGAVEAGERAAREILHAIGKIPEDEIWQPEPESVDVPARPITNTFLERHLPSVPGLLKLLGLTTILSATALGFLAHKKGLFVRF
Procedure: (§1) In Vitro MAO-A and MAO-B Enzyme Activities Assay
(§2) —Membrane Preparations (Crude Mitochondrial Fraction)
(§3) The crude homogenate was centrifuged at 2220 rpm for 10 minutes at +4° C. and the supernatant recovered. The pellet was homogenized and centrifuged again. The two supernatants were pooled and centrifuged at 9250 rpm for 10 minutes. The pellet was resuspended in fresh buffer and centrifuged at 11250 rpm for 10 minutes at +4° C. The resulting pellet was stored at −80° C.
(§4) —In Vitro Enzyme Activities Assay
(§5) The enzyme activities were assessed with a radioenzymatic assay using the substrates ^14C-serotonin (5-HT) and ^14C-phenylethylamine (PEA) for MAO-A and MAO-B, respectively.
(§6) The mitochondrial pellet (500 μg protein) was resuspended in 0.1 M phosphate buffer (pH 7.4). 500 μl of the suspension were added to a 50 μl solution of the test compound or buffer, and incubated for 30 min at 37° C. (preincubation) then the substrate (50 μl) was added. The incubation was carried out for 30 minutes at 37° C. (^14C-5-HT, 5 μM) or for 10 minutes at 37° C. (^14C-PEA, 0.5 μM).
(§7) After centrifugation, the deaminated metabolites were extracted with 3 ml of diethyl ether (5-HT) or toluene (PEA) and the radioactive organic phase was measured by liquid scintillation spectrometry at 90% efficiency. The amount of neutral and/or acidic metabolites formed as a result of MAO activity was obtained by measuring the radioactivity of the eluate.
(§8) The activity of MAO in the sample, corresponding to a percentage of radioactivity compared with the control activity in the absence of the inhibitor, was expressed as nmoles of substrate transformed/mg protein/min.
(§9) The drug inhibition curves were obtained from at least eight different concentration points, each in duplicate (10^−10 to 10^−5 M).

MAO-A = target: T2, MAO-A (Rattus norvegicus, UniProt P21396); test: In vitro MAO-A enzyme activity assay (radioenzymatic, 14C-serotonin) in rat brain mitochondria; type: biochemical
T2 construct: of the invention in rat brain mitochondria; from tissue; host or cells: rat brain, crude mitochondrial fraction (male Wistar rats)
T2 sequence (P21396 1-526): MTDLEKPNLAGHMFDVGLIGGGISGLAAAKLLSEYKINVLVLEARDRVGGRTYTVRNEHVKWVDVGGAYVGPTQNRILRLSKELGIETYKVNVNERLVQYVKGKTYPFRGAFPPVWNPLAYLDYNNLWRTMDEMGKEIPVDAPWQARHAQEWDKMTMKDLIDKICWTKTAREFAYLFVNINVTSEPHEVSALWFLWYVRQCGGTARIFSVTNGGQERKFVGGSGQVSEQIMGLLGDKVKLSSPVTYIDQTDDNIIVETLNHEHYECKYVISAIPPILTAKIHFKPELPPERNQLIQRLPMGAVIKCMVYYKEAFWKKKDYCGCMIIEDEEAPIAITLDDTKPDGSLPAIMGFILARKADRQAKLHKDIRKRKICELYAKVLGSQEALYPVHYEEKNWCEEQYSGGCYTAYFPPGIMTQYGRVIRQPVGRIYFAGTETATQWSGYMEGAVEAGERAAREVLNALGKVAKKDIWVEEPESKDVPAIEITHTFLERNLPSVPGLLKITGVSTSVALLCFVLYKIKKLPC
Procedure: as §1, §2, §3, §4, §5, §6, §7, §8, §9

[1] = test system: mouse closed head injury model; conditions: 1 mg/kg; cited from earlier work
[2] = test system: rat photo-oxidative induced retinopathy model; test: Rat photo-oxidative induced retinopathy model (blue-light exposure; ERG and retinal morphology); type: in vivo; conditions: 15 to 60 mg/kg IP, 1-month recovery period
[3] = test system: rat photo-oxidative induced retinopathy model; test: as above; type: in vivo; conditions: for Maximum ERG a-wave responses, % of normal: 5 days after 6-hour blue-light exposure
Procedure: Neuroprotective Activity of MAO Inhibitors in the Rat Photo-Oxidative Induced Retinopathy Model
Prevention of Photo-oxidative injury with Safinamide: The efficacy of Safinamide, a short acting MAO-B inhibitor, to protect retinal cells against the induction of photochemical lesions by blue-light exposure was assessed by measuring light-induced changes in retinal functioning (electroretinogram (ERG)) and evaluating retinal morphology changes.
Subjects. Male Sprague Dawley rats were randomly assigned to drug or vehicle experimental groups. Rats receiving vehicle (N=15) or drug treatment (Safinamide: 5 mg/kg, N=10; 15 mg/kg, N=10; 30 mg/kg, N=10; and 60 mg/kg, N=9) were pre-dosed (IP) at 48, 24 and 0 hours prior to a 6-hour light exposure (spectrally filtered blue light (˜220 fc)) and 24 and 48 hours after light exposure. Control rats were housed in their home cage under normal cyclic light exposure. Control rats were not dosed with either vehicle or drug.
Retinal Function Assessment. The ERG is a non-invasive clinical measurement of the electrical response of the eye to a flash of light. The a-wave and b-wave are two components of the ERG that are diagnostic of retinal function. The a-wave reflects outer retina function and is generated by interactions between photoreceptor and RPE while the b-wave reflects inner retina function, particularly on-bipolar cells. […] Changes in the a-wave amplitude or latency are diagnostic of outer retina pathology. The ERG was recorded after a five day recovery period from dark-adapted anesthetized rats (ketamine-HCl, 75 mg/Kg; xylazine, 6 mg/Kg). The eye's electrical response to a flash of light was elicited by viewing a ganzfeld. ERGs to a series of light flashes increasing in intensity were digitized to analyze temporal characteristics of the waveform and response voltage-log intensity relationship.
Light Microscopic Assessment of Retinal Lesions. Ocular tissues were fixed in a mixture of paraformaldehyde and glutaraldehyde, dehydrated in an ascending ethanol series, embedded in JB-4 plastic resin, and 1 to 1.5-micron thick sections were analyzed using a quantitative computer image analysis system attached to the microscope. Retinal Pigment Epithelium (RPE), Outer Nuclear Layer (ONL) and Inner to Nuclear Layer (INL) thickness as well as the length of inner segments (IS), where mitochondria are located, and outer segments (OS), which contain the light sensitive photopigment, were measured to assess outer retina protection.

[4] = test system: light-induced functional or morphological changes; test: Light damage paradigms used by the present inventors; type: in vivo
[5] = 15 and 60 mg/kg, light microscopy

IC50 (MAO-B) [nM] | IC50 (MAO-A) [nM] | SMILES | other results
40 | 50000 | CN(CC(N)=O)Cc1ccc(OCc2cccc(Cl)c2)cc1 [2-{[4-(3-Chloro-benzyloxy)-benzyl]-methyl-amino}-acetamide] | –
110 | > 100000 | NC(=O)[C@@H](CO)NCc1ccc(OCc2cccc(Cl)c2)cc1 [(R)-2-[4-(3-Chloro-benzyloxy)-benzylamino]-3-hydroxy-propionamide] | –
30 | 301000 | C[C@H](NCc1ccc(OCC2CCCCC2)cc1)C(N)=O [(S)-2-(4-Cyclohexylmethoxy-benzylamino)-propionamide] | –
180 | 228000 | C[C@H](NCc1ccc(OCc2ccccc2F)cc1)C(N)=O [(S)-2-[4-(2-Fluoro-benzyloxy)-benzylamino]-propionamide] | –
40 | 84000 | NC(=O)[C@H](CO)NCc1ccc(OCc2cccc(Cl)c2)cc1 [(S)-2-[4-(3-Chloro-benzyloxy)-benzylamino]-3-hydroxy-propionamide] | –
30 | 114000 | C[C@H](NCc1ccc(OCc2cccc(Cl)c2)cc1)C(N)=O [(S)-2-[4-(3-Chloro-benzyloxy)-benzylamino]-propionamide] | –
140 | – | NC(=O)[C@H](CO)NCc1ccc(OCc2cccc(F)c2)cc1 [(S)-2-[4-(3-Fluoro-benzyloxy)-benzylamino]-3-hydroxy-propionamide] | –
60 | 93000 | C[C@H](NCc1ccc(OCc2ccc(F)cc2)cc1)C(N)=O [(S)-2-[4-(4-Fluoro-benzyloxy)-benzylamino]-propionamide] | –
60 | 82000 | C[C@@H](C(N)=O)N(C)Cc1ccc(OCc2cccc(Cl)c2)cc1 [(S)-2-{[4-(3-Chloro-benzyloxy)-benzyl]-methyl-amino}-propionamide] | –
– | – | C#CCN[C@@H]1CCc2ccccc21 [Rasagiline] | cerebral edema reduction [1]: 40-50%
– | – | Fc1ccc(C(c2ccc(F)cc2)N2CCN(C/C=C/c3ccccc3)CC2)cc1 [flunarizine] | preventing light-induced functional or morphological changes [4]: moderately effective
– | – | COCCOC(=O)C1=C(C)NC(C)=C(C(=O)OC(C)C)C1c1cccc([N+](=O)[O-])c1 (stereo not drawn) [nimodipine] | preventing light-induced functional or morphological changes [4]: no effect
– | – | Cc1c(C)c2c(c(C)c1O)CC[C@@](C)(CCC[C@H](C)CCC[C@H](C)CCCC(C)C)O2 [α-tocopherol] | preventing light-induced functional or morphological changes [4]: ineffective

SMILES | IC50 (MAO-B) [nM] | IC50 (MAO-A) [nM] | other results
C[C@H](NCc1ccc(OCc2cccc(F)c2)cc1)C(N)=O [Safinamide, (S)-2-[4-(3-Fluoro-benzyloxy)-benzylamino]-propionamide] | 90 | 584000 | ERG a- and b-wave function after 1-month recovery [2]: not significantly different from normal; also recorded: normal ERG a- and b-wave function; ERG a- and b-wave function after 1-month recovery ([2]; listed as safinamide): significant and complete retinal function protection; Maximum ERG a-wave responses, % of normal ([3]; 5 mg/kg IP): 52 % of normal; Maximum ERG a-wave responses, % of normal ([3]; 15 mg/kg IP): greater than 70 % of normal; Maximum ERG a-wave responses, % of normal ([3]; 30 mg/kg IP): greater than 70 % of normal; Retinal responses (ERG) compared to control rats ([3]; 60 mg/kg IP, 5 days after blue-light exposure): not significantly diminished compared to control rats; photoreceptor segment length compared to vehicle-dosed rats ([3]; 60 mg/kg, light microscopy): significantly longer; retinal lesions ([3]; 60 mg/kg, light microscopy): devoid of any significant retinal lesions; retinal lesions ([3]; 60 mg/kg, light microscopy, listed as safinamide): devoid of significant retinal lesions; ERG (retinal function) protection compared to vehicle-dosed rats ([3]; 5-60 mg/kg IP, 5-day recovery period): Significant dose-dependent protection of retinal function; also recorded: significant ERG protection; ONL thickness compared to vehicle-dosed rats [3, 5]: significantly thicker; RPE thickness compared to vehicle-dosed rats [3, 5]: thicker RPE compared to vehicle-dosed rats; reduction in retinal lesions across doses ([3]; light microscopy, all doses): Dose-dependent reduction in retinal lesions
